Results from patent publication US20210308270A1, “SYSTEMS AND METHODS FOR INTRACELLULAR DELIVERY VIA NON-CHARGED SEQUENCE-DEFINED CELL-PENETRATING OLIGOMERS” (priority 2018, published 2021).

Columns and labels:
[1] = tested on: Listeria monocytogenes DP-L1942; experiment: In vitro intracellular infection assay in J774 cells; assay type: cell-based
Experimental: In vitro Intracellular Infection Assay: 100,000 cells/well J774 cells in DMEM supplemented with 10% FBS without pen-strep, referred to as normal growth media, were plated in a 24-well plate and incubated for 20-24 hrs before use. Listeria monocytogenes DP-L1942 strain was taken from an exponentially growing culture (OD600 of ˜0.5) and washed with 1×PBS pH 7.4. Macrophages were infected with 200,000 bacteria in normal growth media to achieve an initial infection of approximately two bacteria per cell (MOI=2). The cells were washed twice with PBS at 30 mins after infection and supplemented with normal growth media. At 1-hr post infection, gentamicin (50 μg/ml) was added to eliminate all extracellular bacteria. The cells were then washed twice with PBS after 30 mins of incubation and supplemented with normal growth media. At 2-hr post infection, 30 μM of CPOT-vancomycin conjugates were added to the infected cells and incubated for 4 hrs. At the end of the incubation period, macrophages were washed twice with PBS, and the cells were lysed with 0.1% Triton-X in PBS. The cell lysate was diluted 10× in Brain Heart Infusion (BHI) broth and plated in a 96-well plate. The plate was incubated at 37° C. with agitation. The growth curve kinetics were generated from the absorbance measurements at 600 nm taken every 5 mins for 14 hrs.

[2] = tested on: HeLa cells; experiment: Cellular uptake of fluorescein conjugates by flow cytometry, HeLa; assay type: cell-based, human
Experimental: (§1) After the incubation, cells were washed with PBS and incubated with 200 μL of Trypsin EDTA at 37° C. for 3-5 mins. 1 mL of DMEM with 10% FBS was then added to quench the trypsin. […] Results were analyzed by FlowJo software.
Dose-dependent uptake: The standard uptake procedure was followed, except that cells were treated with the labeled oligoTEAs at 0.5 μM to 5 μM. All other conditions remained the same.
Uptake kinetics study: The standard uptake procedure was followed, except that cells were treated with fluorescein-PEO^2-B at 2.5 μM for 15-120 mins (minutes). After the incubation, the plate was cells were washed with PBS and incubated with 200 μL of Trypsin EDTA at 37° C. for 3-5 mins. All other conditions remained the same.
(§2) Mechanism of uptake: The standard uptake procedure was followed with the following changes for each mechanistic condition. Readings were taken on a FACSAria™ Fusion flow cytometry analyzer (Becton Dickinson).
Uptake with and without serum: Prior to treatment, cells were washed with PBS. Cells were then incubated with fluorescein conjugates in either DMEM with 10% FBS or Opti-MEM at 37° C. for 1 hr. Following treatment, cells were washed with PBS before addition of Trypsin EDTA.
Pretreatment with heparin sulfate: Prior to treatment, fluorescein conjugates were incubated with different concentrations of heparin sulfate and DMEM with 10% FBS in Eppendorf® tubes for 30 mins at 37° C. Cells were washed with PBS, and incubated with the treatment solutions at 37° C. for 1 hr. Following treatment, cells were washed with PBS once more before addition of Trypsin EDTA.
(§3) Temperature dependence: Prior to treatment, fluorescein conjugates were incubated with DMEM with 10% FBS in Eppendorf® tubes for 30 mins at 37° C. or 4° C. Cells were washed with warm (37° C.) or cool (4° C.) PBS for 5 mins. Pre-warmed or pre-cooled fluorescein conjugate solution was then added, and cells were incubated at 37° C. or refrigerated at 4° C. for 1 hr. Following treatment, cells were washed with PBS before addition of Trypsin EDTA.
(§4) Uptake with and without NaN3 and 2-deoxy-D-glucose (DOG): Prior to treatment, cells were washed with PBS. Cells were then incubated with 10 mM NaN3 and 25 mM DOG in DMEM with 10% FBS at 37° C. for 1 hr. Fluorescein conjugates were added, and cells were incubated at 37° C. for another hour. Following treatment, cells were washed with PBS before addition of Trypsin EDTA.
as §4, with “chlorpromazine (CPM):” for “NaN3 and 2-deoxy-D-glucose (DOG):”, “5 μg/mL (or 15.7 μM) CPM” for “10 mM NaN3 and 25 mM DOG”, “EDTA. […]” for “EDTA.”

[3] = tested on: SKOV-3 cells; experiment: Cellular uptake of fluorescein conjugates by flow cytometry, SKOV-3; assay type: cell-based, human
Experimental: as §1, §2, §3, §4
(§5) Uptake with and without chlorpromazine (CPM): Prior to treatment, cells were washed with PBS. […]

[4] = tested on: HEK293 cells; experiment: Cellular uptake of fluorescein conjugates by flow cytometry, HEK293; assay type: cell-based, human
Experimental: as §1, §2, §3, §4, §5

[5] = tested on: HeLa cells; experiment: Live-cell confocal microscopy and time-lapse imaging; assay type: cell-based, human
Experimental: Live-Cell confocal microscopy: 70,000 HeLa cells/chamber were plated in a 4-chamber 35-mm glass-bottom microwell dish ([…]) and cultured at 37° C. for 20-24 hrs. […] For co-localization experiments, cells were incubated with fluorescein conjugates along with 150 nM Transferrin-Alexa Fluor 647, or 150 μM Dextran-Alexa Fluor 647 for 1 hr at 37° C. Cells were gently washed 3 times with PBS, and FluoroBrite DMEM Media supplemented with 10% FBS was added to each chamber for imaging. Images were taken on a Zeiss LSM880 live-cell confocal/multiphoton inverted microscope, equipped with a 63× oil objective, with 488-nm and 633-nm lasers enabled for fluorescein and Transferrin-Alexa Fluor 647/Dextran-Alexa Fluor 647, respectively. Images were processed using Fiji software. Time-lapse live-cell imaging: 70,000 HeLa cells/chamber were plated in a 4-chamber 35-mm glass-bottom microwell dish ([…]) and cultured at 37° C. for 20-24 hrs. […] Images were taken on a Zeiss LSM880 live-cell confocal/multiphoton inverted microscope, equipped with a 63× oil objective, with 488-nm laser enabled for fluorescein. Images were processed using Fiji software.

[6] = tested on: J774 cells; experiment: Uptake of fluorescein cargo by oligoTEAs, flow cytometry, J774; assay type: cell-based; details: 5 μM, 1 hr
Experimental: (§6) After the incubation, cells were washed with PBS. […] Results were analyzed by FlowJo software.

[7] = tested on: MC-3T3-E1 cells; experiment: Uptake of fluorescein cargo by oligoTEAs, flow cytometry, MC-3T3-E1; assay type: cell-based; details: 5 μM, 1 hr
Experimental: as §6

O=C(O)c1cn(C2CC2)c2cc(N3CCNCC3)c(F)cc2c1=O [Ciprofloxacin]
inhibition at 30 µM ([1]; Listeria monocytogenes, DPL1942, J774, 4 h, read-out: inhibition of bacteria growth): > 80%

CN[C@H](CC(C)C)C(=O)N[C@H]1C(=O)N[C@@H](CC(N)=O)C(=O)N[C@H]2C(=O)N[C@H]3C(=O)N[C@H](C(=O)N[C@H](C(=O)O)c4cc(O)cc(O)c4-c4cc3ccc4O)[C@H](O)c3ccc(c(Cl)c3)Oc3cc2cc(c3O[C@@H]2O[C@H](CO)[C@@H](O)[C@H](O)[C@H]2O[C@H]2C[C@](C)(N)[C@H](O)[C@H](C)O2)Oc2ccc(cc2Cl)[C@H]1O [vancomycin]
inhibition of bacteria growth ([1]; 30 μM, 4 hrs treatment, 14th hour of growth curve): little to no effect on bacteria growth

Ac-RRRRRRRRRK-Am (Ac-RRRRRRRRRK-NH2) [R9, widely used cationic CPP, purchased from GenScript]
temperature dependence of uptake, 4° C. vs 37° C. [2]: weaker dependence on temperature
increase of uptake in the absence of serum ([2]; Opti-MEM vs DMEM with 10% FBS): 2 fold
effect of endocytosis inhibitors on uptake ([2]; chlorpromazine (clathrin), filipin III (caveolae), cytochalasin D (macropinocytosis)): dependence on clathrin in HeLa cells and macropinocytosis in both HEK293 and HeLa cells
decrease of uptake in the presence of heparin sulfate ([2]; conjugate pretreated with heparin sulfate 30 mins): 6 fold
temperature dependence of uptake, 4° C. vs 37° C. [3]: weaker dependence on temperature
temperature dependence of uptake, 4° C. vs 37° C. [4]: weaker dependence on temperature
effect of endocytosis inhibitors on uptake ([4]; chlorpromazine, filipin III, cytochalasin D): macropinocytosis in both HEK293 and HeLa cells
subcellular distribution ([5]; 5 μM fluorescein conjugate, 1 hr, 63×): primarily as punctate spots
trend of uptake of fluorescein cargo [6]: R9 (PEG-Bu)4>(BDT-PEG)4>(BDT-PEG4)4˜(PEG-PEG)4
trend of uptake of fluorescein cargo [7]: R9 (PEG-Bu)4>(BDT-PEG)4>(BDT-PEG4)4˜(PEG-PEG)4

fluorescein acid
internalization in time-lapse live cell imaging ([5]; 2.5 μM, trypan blue present, 60 mins): no internalization
